Experimental data as given in patent US20250249013A1, “COMBINATION METABOLIC-EPIGENETIC TREATMENT FOR EARLY LUNG CANCER” (THE REGENTS OF THE UNIVERSITY OF CALIFORNIA, priority 2022, published 2025).

How the values were obtained:
A549 and NCI-H358 cells = assay: RNA-seq, genes regulated consistently in both cell lines; format: cell-based, human; settings: significantly regulated in at least 3 of the four conditions
Method: (§1) A549 and NCI-H358 cell lines were incubated in triplicate with high glucose (20 mM), low glucose (1 mM), and low glucose+dm-αKG (10 mM). Total RNA was extracted as previously described. RNA sequencing was performed by Med Genome. Sample quality control was performed using Quibit fluorometric (Agilent) and Tapestation bioanalyzer (Agilent). For library preparation TruSeq Stranded Total RNA kit (Illumina) was used and libraries were sequenced on NovaSeq platform (Illumina). The FASTQ data generated was used for gene expression analysis, performed as described in Nassa et al (Nassa et al, 2019).
Briefly, the raw sequence files generated (.fastq files) underwent quality control analysis using FASTQC (http://www.bioinformatics.babraham.ac.uk/projects/fastqc/) and adapter sequences were removed using Trimmomatic version 0.38 (Bolger et al, 2014) Filtered reads were aligned on human genome (assembly hg38) considering genes present in GenCode Release 35 (GRCh38.p12) using STAR v2.7.6a (Dobin et al, 2013) with standard parameters. Quantification of expressed genes was performed using featureCounts (Liao et al, 2014) and differentially expressed genes were identified using DESeq2 (Love et al, 2014). A given RNA was considered expressed when detected by at least ≥10 raw reads. […]

2953A cells = assay: αKG rescue in low glucose, western blot and RT-PCR; format: cell-based, mouse; settings: low glucose 5 days
Method: (§2) Human lung cancer A549 (CCL-185) and NCI-H358 (CRL-5807) cells lines were purchased from American Type Culture Collection (ATCC, Manassas, VA). Cells were maintained in culture according to manufacturer protocol using Roswell Park Memorial Institute (RPMI) 1640 medium (Corning, Cat. #10-040CV) supplemented with 10% FBS and 5% 1× Pen-Strep and kept in 37° C. and 5% of CO2. Murine 2953A cell line was established in our lab from a KP lung tumor by tissue dissociation. This cell line was maintained in culture in Dulbecco's modified Eagle Medium (DMEM) medium (Corning, Cat. #10-017CV) with 5% FBS and 5% 1× Pen-Strep.
(§3) All experiments in cell lines were performed in biological triplicate. Cells were seeded at same confluence and grown for 5 days (and for some experiments overnight or up to 9 days or 30 days, as indicated in the figures and text) in different concentration of glucose: high (20 mM), low (1 mM) and for some experiments medium (5 mM), as indicated. We used mediums with glutamine and without glucose: RPMI (Corning Cat. #10-043CV) for A549 and NCI-H358 cells, DMEM (ThermoScientific Cat. #11566025) for 2953A cells, supplemented with 10% FBS, 5% of 1× Pen-Strep and complemented with D-Glucose to the desired final concentration, as indicated in the figures.
(§4) All αKG rescue experiments were conducted using 10 mM alpha-ketoglutarate (α-KG; Sigma) and α-Mannitol (Sigma) as osmotic control.
(§5) For total protein extraction, cells were harvested, washed twice with ice-cold PBS-EDTA (0.5 mm EDTA), lysed using RIPA buffer (50 mM Tris-HCl pH 7.6, 150 mM NaCl, 0.1% SDS, 0.5% C24H39NaO4, 1% NP-40, 2 mm EDTA, 50 mm NaF) for 15 min on ice and centrifuged at 13,000 rpm for 30 min at +4° C. The resulting protein extracts were quantified using BCA protein assay followed by analysis by SDS-PAGE and Western blotting.
(§6) Histones was extracted from A549, NCI-H358 and 2953A cell lines using the Histone extraction kit (Abcam) according to manufacturer instructions.
(§7) SDS-PAGE and Western blotting analyses were performed using standard protocols. For antibodies information, see Reagents and Tools Table. Western blot images were detected by iBright Imaging Systems (Thermo Fisher Scientific). The protein detected was normalized to Actin or H3 total antibodies, this last in case of histonic extract. Each immunodetection derived from the same membrane was performed with the same exposure times according to the manufacture's antibody guidelines and was cropped only for presentation purposes; this is indicated by a dotted line.
(§8) Total RNA was extracted from A549, NCI-H358 and 2953A by using TRI Reagent Solution (Applied Biosystem), according to manufacturer instruction. RNA concertation was assayed by Nanodrop 3000 spectrophotometer (Thermo Fisher Scientific). Then, 1 μg of RNA was treated with DNase I (Thermo Fisher Scientific) and used for cDNA preparation.
(§9) cDNA was prepared using 1 μg of RNA with SuperScript IV Reverse Transcriptase (Invitrogen). SYBR green-based RT-PCR kit (Biorad) was performed using human and mouse primers (See Table EV11). mRNA levels were normalized to GAPDH (ΔCt=Ctgene of interest-Ct GAPDH) and presented as relative mRNA expression (ΔΔCt=2-(ΔCtsample-ΔCtcontrol)). All primers were designed by NCBI Primer-BLAST and purchased from Integrated DNA Technologies.

NCI-H358 cells [1] = assay: RNA-seq, low glucose with dm-αKG; format: cell-based, human; settings: NCI-H358, low glucose + dm-αKG 10 mM, five days
Method: as §1
(§10) Briefly, the raw sequence files generated (.fastq files) underwent quality control analysis using FASTQC (http://www.bioinformatics.babraham.ac.uk/projects/fastqc/) and adapter sequences were removed using Trimmomatic version 0.38 (Bolger et al, 2014) Filtered reads were aligned on human genome (assembly hg38) considering genes present in GenCode Release 35 (GRCh38.p12) using STAR v2.7.6a (Dobin et al, 2013) with standard parameters. Quantification of expressed genes was performed using featureCounts (Liao et al, 2014) and differentially expressed genes were identified using DESeq2 (Love et al, 2014). A given RNA was considered expressed when detected by at least ≥10 raw reads.
(§11) Differential expression was reported as Ifold-changel (FC)[…] along with associated adjusted pvalues≤0.05 computed according to Benjamini-Hochberg. Gene Set Enrichment Analysis (GSEA) was performed to examine pathway enrichment for the differential expressed genes with the Molecular Signature Database “Hallmarks” gene set collection (Liberzon et al, 2015). Only those with an FDR […] have been selected.

A549 cells [2] = assay: RNA-seq, low glucose with dm-αKG; format: cell-based, human; settings: A549, low glucose + dm-αKG 10 mM, five days
Method: as §1, §10, §11

NCI-H358 cells [3] = assay: αKG rescue in low glucose, western blot and RT-PCR; format: cell-based, human
Method: as §2, §3, §4, §5, §6, §7, §8, §9

A549 cells [4] = assay: αKG rescue in low glucose, western blot and RT-PCR; format: cell-based, human
Method: as §2, §3, §4, §5, §6, §7, §8, §9

[5] = NCI-H358, low glucose 5 days, dm-αKG
[6] = NCI-H358, low glucose 5 days, dm-αKG 10 mM
[7] = A549, low glucose 5 days, dm-αKG
[8] = A549, low glucose 5 days, dm-αKG 10 mM

**Q.** COC(=O)CCC(=O)C(=O)OC [dm-αKG, dimethyl-αKG] was tested. Which “genes down-regulated by low glucose consistently in both cell lines and rescued by dm-αKG” value (A549 and NCI-H358 cells) did it give?
**A.** 445 genes

**Q.** And the “genes up-regulated by low glucose consistently in both cell lines and rescued by dm-αKG” value (A549 and NCI-H358 cells)?
**A.** 524 genes

**Q.** And the “H3K4 hyper-methylation, western blot on histone extracts” value (from here on “H3K4 hyper-methylation, western blot”) (2953A cells; dm-αKG)?
**A.** reverse

**Q.** And the “H3K9 hyper-methylation, western blot on histone extracts” value (“H3K9 hyper-methylation, western blot” for short) (2953A cells; dm-αKG)?
**A.** reverse

**Q.** And the “H3K27 hyper-methylation, western blot on histone extracts” value (“H3K27 hyper-methylation, western blot” for short) (2953A cells; dm-αKG)?
**A.** reverse

**Q.** What about the “H3K27 hypo-acetylation, western blot on histone extracts” value (from here on “H3K27 hypo-acetylation, western blot”) (2953A cells; dm-αKG) of the same molecule?
**A.** reverse

**Q.** And the “GLUT1 expression, qPCR” value (2953A cells; dm-αKG 10 mM)?
**A.** reduced

**Q.** What about the “low glucose-induced inhibition of FoxA2 mRNA, qPCR” value (2953A cells; dm-αKG 10 mM) of the same molecule?
**A.** rescued

**Q.** And the “low glucose-induced reduction in FOXA2 protein, western blot” value (2953A cells; dm-αKG 10 mM)?
**A.** rescued

**Q.** What about the “number of low glucose down-regulated genes rescued by dm-αKG” value (NCI-H358 cells [1]; 942 genes down-regulated by low glucose) of the same molecule?
**A.** 370 genes

**Q.** And the “number of low glucose up-regulated genes rescued by dm-αKG” value (NCI-H358 cells [1]; 1,335 genes up-regulated by low glucose)?
**A.** 510 genes

**Q.** And the “number of low glucose down-regulated genes rescued by dm-αKG” value (A549 cells [2]; 2,024 genes down-regulated by low glucose)?
**A.** 1,431 genes

**Q.** And the “number of low glucose up-regulated genes rescued by dm-αKG” value (A549 cells [2]; 2,394 genes up-regulated by low glucose)?
**A.** 1,634 genes

**Q.** And the “HIF1α and HIF2α protein, western blot, control condition” value (NCI-H358 cells [3]; NCI-H358, cells growing in low glucose (so in the source), dm-αKG)?
**A.** did not have any effect

**Q.** And the “H3K4 hyper-methylation, western blot” value (NCI-H358 cells [3]; [5])?
**A.** reverse

**Q.** What about the “H3K9 hyper-methylation, western blot” value (NCI-H358 cells [3]; [5]) of the same molecule?
**A.** reverse

**Q.** And the “H3K27 hyper-methylation, western blot” value (NCI-H358 cells [3]; [5])?
**A.** reverse

**Q.** What about the “H3K27 hypo-acetylation, western blot” value (NCI-H358 cells [3]; [5]) of the same molecule?
**A.** reverse

**Q.** And the “low glucose-induced increase of Slug, western blot” value (NCI-H358 cells [3]; [5])?
**A.** rescued

**Q.** What about the “low glucose-induced repression of PHD3 expression, RT-PCR” value (NCI-H358 cells [3]; [5]) of the same molecule?
**A.** rescued

**Q.** What about the “low glucose-induced up-regulation of HIF1α mRNA, RT-PCR” value (NCI-H358 cells [3]; [5]) of the same molecule?
**A.** rescued

**Q.** And the “low glucose-induced up-regulation of HIF1α protein, western blot” value (NCI-H358 cells [3]; [5])?
**A.** reversed

**Q.** What about the “low glucose-induced up-regulation of HIF2α mRNA, RT-PCR” value (NCI-H358 cells [3]; [5]) of the same molecule?
**A.** rescued

**Q.** What about the “low glucose-induced up-regulation of HIF2α protein, western blot” value (NCI-H358 cells [3]; [5]) of the same molecule?
**A.** reversed

**Q.** And the “GLUT1 expression, qPCR” value (NCI-H358 cells [3]; [6])?
**A.** reduced

**Q.** What about the “low glucose-induced inhibition of FoxA2 mRNA, qPCR” value (NCI-H358 cells [3]; [6]) of the same molecule?
**A.** rescued

**Q.** What about the “low glucose-induced inhibition of TTF-1 mRNA, qPCR” value (NCI-H358 cells [3]; [6]) of the same molecule?
**A.** rescued

**Q.** What about the “low glucose-induced reduction in FOXA2 protein, western blot” value (NCI-H358 cells [3]; [6]) of the same molecule?
**A.** rescued

**Q.** What about the “low glucose-induced reduction in TTF1 protein, western blot” value (NCI-H358 cells [3]; [6]) of the same molecule?
**A.** rescued

**Q.** And the “HIF1α and HIF2α protein, western blot, control condition” value (A549 cells [4]; A549, cells growing in low glucose (so in the source), dm-αKG)?
**A.** did not have any effect

**Q.** And the “H3K4 hyper-methylation, western blot” value (A549 cells [4]; [7])?
**A.** reverse

**Q.** What about the “H3K9 hyper-methylation, western blot” value (A549 cells [4]; [7]) of the same molecule?
**A.** reverse

**Q.** And the “H3K27 hyper-methylation, western blot” value (A549 cells [4]; [7])?
**A.** reverse

**Q.** And the “H3K27 hypo-acetylation, western blot” value (A549 cells [4]; [7])?
**A.** reverse

**Q.** And the “low glucose-induced increase of Slug, western blot” value (A549 cells [4]; [7])?
**A.** rescued

**Q.** And the “low glucose-induced reduction in Snail, western blot” value (A549 cells [4]; [7])?
**A.** partially rescued

**Q.** What about the “low glucose-induced reduction in ZEB1, western blot” value (A549 cells [4]; [7]) of the same molecule?
**A.** partially rescued

**Q.** And the “low glucose-induced repression of PHD3 expression, RT-PCR” value (A549 cells [4]; [7])?
**A.** rescued

**Q.** And the “low glucose-induced up-regulation of HIF1α mRNA, RT-PCR” value (A549 cells [4]; [7])?
**A.** rescued

**Q.** And the “low glucose-induced up-regulation of HIF1α protein, western blot” value (A549 cells [4]; [7])?
**A.** reversed

**Q.** And the “low glucose-induced up-regulation of HIF2α mRNA, RT-PCR” value (A549 cells [4]; [7])?
**A.** rescued

**Q.** What about the “low glucose-induced up-regulation of HIF2α protein, western blot” value (A549 cells [4]; [7]) of the same molecule?
**A.** reversed

**Q.** What about the “GLUT1 expression, qPCR” value (A549 cells [4]; [8]) of the same molecule?
**A.** reduced

**Q.** And the “low glucose-induced inhibition of FoxA2 mRNA, qPCR” value (A549 cells [4]; [8])?
**A.** rescued

**Q.** And the “low glucose-induced reduction in FOXA2 protein, western blot” value (A549 cells [4]; [8])?
**A.** rescued
